In PubChem BioAssay (NCI):
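Where inhibition never reached the appropriate level, the endpoint shown equals the highest concentration tested. Otherwise, values were interpolated linearly from a five-concentration, 48-hour dose response in 96-well plates. GI50: concentration for 50% inhibition of growth. TGI: total growth inhibition.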

Assays:
Experiment in all cases: growth of human tumour cells (NCI), 48 h
T-47D breast = tested on: T-47D breast
COLO 205 colon = tested on: COLO 205 colon
NCI/ADR-RES ovarian = tested on: NCI/ADR-RES ovarian
SF-539 CNS = tested on: SF-539 CNS
EKVX NSCLC = tested on: EKVX NSCLC
MDA-MB-231 breast = tested on: MDA-MB-231 breast
OVCAR-8 ovarian = tested on: OVCAR-8 ovarian
UACC-62 melanoma = tested on: UACC-62 melanoma
786-0 renal = tested on: 786-0 renal
IGROV1 ovarian = tested on: IGROV1 ovarian

`COC(=O)[C@H](Cc1c[nH]c2ccccc12)NC(=O)[C@@H](OC)[C@@H]1Cc2cc3cc(OC4CC(OC5CC(O)C(O)C(C)O5)C(O)C(C)O4)c(C)c(O)c3c(O)c2C(=O)[C@H]1OC1CC(OC2CC(OC3CC(C)(O)C(O)C(C)O3)C(O)C(C)O2)C(O)C(C)O1` (stereo partly specified) was tested, and the GI50 (T-47D breast) was 0.0075 µM, the TGI (T-47D breast) was over 9.76 µM and the GI50 (COLO 205 colon) was 0.00366 µM. It also gave a TGI (COLO 205 colon) of 0.00882 µM, a GI50 (NCI/ADR-RES ovarian) of over 11.7 µM and a TGI (NCI/ADR-RES ovarian) of over 16.5 µM. For the same molecule, the GI50 (SF-539 CNS) was 0.00546 µM, the TGI (SF-539 CNS) was 0.0244 µM and the GI50 (EKVX NSCLC) was 0.0125 µM. For the same molecule, the TGI (EKVX NSCLC) was 3 µM, the GI50 (MDA-MB-231 breast) was 0.00975 µM and the TGI (MDA-MB-231 breast) was 0.603 µM. The GI50 (OVCAR-8 ovarian) was 0.0097 µM, the TGI (OVCAR-8 ovarian) was over 16.5 µM and the GI50 (UACC-62 melanoma) was 0.00361 µM. It also gave a TGI (UACC-62 melanoma) of 0.00983 µM, a GI50 (786-0 renal) of 0.0158 µM and a TGI (786-0 renal) of over 16.5 µM. For the same molecule, the GI50 (IGROV1 ovarian) was 0.00743 µM and the TGI (IGROV1 ovarian) was over 7.79 µM.

Molecule `COc1ccc(/C(Cl)=C(\C=O)c2ccc([N+](=O)[O-])cc2)cc1` has a TGI (COLO 205 colon) of 40.4 µM, a TGI (SF-539 CNS) of 32.2 µM and a TGI (EKVX NSCLC) of over 68.8 µM. For the same molecule, the TGI (OVCAR-8 ovarian) was 38.3 µM, the TGI (UACC-62 melanoma) was 33.1 µM and the TGI (786-0 renal) was 31.6 µM. It also gave a TGI (IGROV1 ovarian) of 53.3 µM.

For `COc1ccc(-n2cc(-c3cc(OC)c(OC)c(OC)c3)[nH]c2=O)cc1Cl`, the GI50 (T-47D breast) was over 100 µM, the TGI (T-47D breast) was over 100 µM and the GI50 (COLO 205 colon) was over 100 µM. For the same molecule, the TGI (COLO 205 colon) was over 100 µM, the GI50 (NCI/ADR-RES ovarian) was over 100 µM and the TGI (NCI/ADR-RES ovarian) was over 100 µM. It also gave a GI50 (SF-539 CNS) of 35 µM, a TGI (SF-539 CNS) of over 100 µM and a GI50 (EKVX NSCLC) of over 100 µM. It also gave a TGI (EKVX NSCLC) of over 100 µM, a GI50 (MDA-MB-231 breast) of 34.9 µM and a TGI (MDA-MB-231 breast) of over 100 µM. For the same molecule, the GI50 (UACC-62 melanoma) was 51.1 µM, the TGI (UACC-62 melanoma) was over 100 µM and the GI50 (786-0 renal) was 27.7 µM. The TGI (786-0 renal) was over 100 µM, the GI50 (IGROV1 ovarian) was over 100 µM and the TGI (IGROV1 ovarian) was over 100 µM.

`Cc1ccc(-c2cc(=O)c3cc(C)c(C)c(C(=O)O)c3o2)cc1C` showed a TGI (COLO 205 colon) of over 100 µM, a TGI (SF-539 CNS) of over 100 µM and a TGI (EKVX NSCLC) of over 100 µM. For the same molecule, the TGI (OVCAR-8 ovarian) was over 100 µM, the TGI (UACC-62 melanoma) was over 100 µM and the TGI (786-0 renal) was over 100 µM. The TGI (IGROV1 ovarian) was over 100 µM.

`O=C(/C=C/c1c(O)ccc2ccccc12)c1ccccc1` gave a TGI (COLO 205 colon) of over 100 µM, a TGI (SF-539 CNS) of over 100 µM and a TGI (EKVX NSCLC) of over 100 µM. The TGI (OVCAR-8 ovarian) was over 100 µM, the TGI (UACC-62 melanoma) was over 100 µM and the TGI (786-0 renal) was over 100 µM. For the same molecule, the TGI (IGROV1 ovarian) was over 100 µM.

With `Cc1nc2ccccc2c(=O)n1-c1ccccc1F` the TGI (COLO 205 colon) was over 100 µM, the TGI (SF-539 CNS) was over 100 µM and the TGI (EKVX NSCLC) was over 100 µM. It also gave a TGI (OVCAR-8 ovarian) of over 100 µM, a TGI (UACC-62 melanoma) of over 100 µM and a TGI (786-0 renal) of over 100 µM. The TGI (IGROV1 ovarian) was over 100 µM.

`Fc1ccc(C2SCc3nc4ccccc4n32)cc1Cl` (stereo unspecified) was tested, and the TGI (COLO 205 colon) was 28.6 µM, the TGI (SF-539 CNS) was 43.8 µM and the TGI (EKVX NSCLC) was 92.8 µM. The TGI (OVCAR-8 ovarian) was 48.1 µM, the TGI (UACC-62 melanoma) was 25.6 µM and the TGI (786-0 renal) was over 100 µM.

For `CC1=N/C(=C\c2cccc([N+](=O)[O-])c2)C(=O)O1`, the TGI (COLO 205 colon) was over 100 µM, the TGI (SF-539 CNS) was over 100 µM and the TGI (EKVX NSCLC) was over 100 µM. The TGI (OVCAR-8 ovarian) was over 100 µM, the TGI (UACC-62 melanoma) was over 100 µM and the TGI (786-0 renal) was over 100 µM. For the same molecule, the TGI (IGROV1 ovarian) was over 100 µM.

With `COc1cc2c(c(OC)c1OC)-c1c(cc3c(c1OC)OCO3)C1OC2C(C)C1C` (stereo unspecified) (tested in a mixture with another compound) the TGI (T-47D breast) was 80.2 µM, the TGI (COLO 205 colon) was over 100 µM and the TGI (SF-539 CNS) was over 100 µM. The TGI (EKVX NSCLC) was over 100 µM, the TGI (MDA-MB-231 breast) was over 100 µM and the TGI (OVCAR-8 ovarian) was over 100 µM. It also gave a TGI (UACC-62 melanoma) of over 100 µM, a TGI (786-0 renal) of over 100 µM and a TGI (IGROV1 ovarian) of over 100 µM.

`CCc1oc2ccccc2c1C(=O)c1cc(I)c(O)c(I)c1` was tested, and the GI50 (T-47D breast) was 4.56 µM, the TGI (T-47D breast) was 20.8 µM and the GI50 (COLO 205 colon) was 5.05 µM. It also gave a TGI (COLO 205 colon) of 18.7 µM, a GI50 (NCI/ADR-RES ovarian) of 1.49 µM and a TGI (NCI/ADR-RES ovarian) of 5.25 µM. The GI50 (SF-539 CNS) was 2.28 µM, the TGI (SF-539 CNS) was 10.4 µM and the GI50 (EKVX NSCLC) was 3.59 µM. It also gave a TGI (EKVX NSCLC) of 15.4 µM, a GI50 (MDA-MB-231 breast) of 5.64 µM and a TGI (MDA-MB-231 breast) of 20.8 µM. It also gave a GI50 (OVCAR-8 ovarian) of 4.9 µM, a TGI (OVCAR-8 ovarian) of 28.5 µM and a GI50 (UACC-62 melanoma) of 3.32 µM. It also gave a TGI (UACC-62 melanoma) of 16.8 µM, a GI50 (786-0 renal) of 3.76 µM and a TGI (786-0 renal) of 15.3 µM.
